{"source": "patent US4996217A", "about": "“Pyridyl-substituted imidazoles, compositions containing same and methods of use thereof” (Tanabe Seiyaku Company, Ltd., priority 1986, dated 1991)"}
{"system": "gastrin-induced gastric acid secretion", "assay": "effect on gastrin-induced gastric acid secretion, oral administration to rats", "assay_type": "in vivo", "settings": "dose of 30 mg/kg"}
{"smiles": "CCN(CC)c1ccccc1C[S+]([O-])c1nc2c(n1-c1ccccn1)CCC2", "note": "(stereo not drawn) [1,4,5,6-tetrahydro-1-(2-pyridyl)-2-(2-(diethylamino)benzylsulfinyl)cyclopenta(d)imidazole]", "decrease in gastric acid secretion as compared with non-administered group of rats": "more than 70%"}
{"smiles": "[O-][S+](Cc1ccccc1-n1cccc1)c1nccn1-c1ccccn1", "note": "(stereo not drawn) [1-(2-pyridyl)-2-(2-(1-pyrrolyl)-benzylsulfinyl)imidazole]", "decrease in gastric acid secretion as compared with non-administered group of rats": "more than 70%"}
{"smiles": "Cc1cccnc1-n1ccnc1[S+]([O-])Cc1ccccc1N(C)C", "note": "(stereo not drawn) [1-(3-methyl-2-pyridyl)-2-(2-(dimethylamino)benzylsulfinyl)imidazole]", "decrease in gastric acid secretion as compared with non-administered group of rats": "more than 70%"}
{"target": "T1, H+/K+ ATPase (Sus scrofa, UniProt P19156)", "T1 construct": "prepared from the porcine gastric mucosa; from tissue; host or cells: porcine gastric mucosa", "T1 sequence (P19156 2-1034 limits assumed)": "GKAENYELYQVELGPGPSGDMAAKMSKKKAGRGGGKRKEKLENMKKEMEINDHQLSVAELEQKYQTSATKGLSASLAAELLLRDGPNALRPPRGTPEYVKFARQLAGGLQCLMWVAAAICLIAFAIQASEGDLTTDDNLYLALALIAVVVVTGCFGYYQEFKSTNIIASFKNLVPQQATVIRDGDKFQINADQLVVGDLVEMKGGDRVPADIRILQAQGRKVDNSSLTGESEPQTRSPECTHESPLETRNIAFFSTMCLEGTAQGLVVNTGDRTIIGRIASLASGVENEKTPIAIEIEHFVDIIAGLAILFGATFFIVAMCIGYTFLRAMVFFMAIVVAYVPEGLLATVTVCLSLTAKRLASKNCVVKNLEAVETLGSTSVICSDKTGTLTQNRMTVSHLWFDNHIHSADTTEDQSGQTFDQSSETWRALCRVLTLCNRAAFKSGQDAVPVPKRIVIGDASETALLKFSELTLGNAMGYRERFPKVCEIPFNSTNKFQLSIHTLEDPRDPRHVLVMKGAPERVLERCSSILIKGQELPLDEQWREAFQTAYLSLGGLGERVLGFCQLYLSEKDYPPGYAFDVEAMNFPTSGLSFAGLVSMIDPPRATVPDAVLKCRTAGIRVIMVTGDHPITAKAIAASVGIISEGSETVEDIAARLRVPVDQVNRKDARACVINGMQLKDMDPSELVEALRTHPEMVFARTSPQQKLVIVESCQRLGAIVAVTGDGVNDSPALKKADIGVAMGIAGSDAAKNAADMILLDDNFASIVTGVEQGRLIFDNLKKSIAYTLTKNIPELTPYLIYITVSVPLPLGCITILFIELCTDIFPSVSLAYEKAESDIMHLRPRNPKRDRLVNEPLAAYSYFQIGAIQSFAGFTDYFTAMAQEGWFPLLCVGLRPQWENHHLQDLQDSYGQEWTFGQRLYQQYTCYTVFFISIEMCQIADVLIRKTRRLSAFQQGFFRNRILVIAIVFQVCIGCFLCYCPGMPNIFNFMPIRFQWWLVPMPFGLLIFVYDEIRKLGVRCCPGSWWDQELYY", "T1 sequence (P18434 whole entry partner)": "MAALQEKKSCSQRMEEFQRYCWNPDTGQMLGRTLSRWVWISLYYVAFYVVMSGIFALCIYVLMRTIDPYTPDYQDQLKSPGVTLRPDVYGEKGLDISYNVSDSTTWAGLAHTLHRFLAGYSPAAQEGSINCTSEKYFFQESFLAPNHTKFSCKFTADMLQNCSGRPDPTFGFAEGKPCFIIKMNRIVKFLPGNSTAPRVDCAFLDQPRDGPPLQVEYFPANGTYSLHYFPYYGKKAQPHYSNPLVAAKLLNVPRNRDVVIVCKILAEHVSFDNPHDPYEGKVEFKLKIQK", "assay": "effect on the enzyme activity of H+/K+ ATPase prepared from porcine gastric mucosa", "assay_type": "biochemical", "settings": "read-out: IC50 (concentration required to induce 50% inhibition of H+/K+ ATPase enzymatic activity)", "units": {"IC50": "µM"}}
{"smiles": "[O-][S+](Cc1ccccc1NC1CCCCC1)c1nccn1-c1ccccn1", "note": "(stereo not drawn) [1-(2-pyridyl)-2-(2-(cyclohexylamino)benzylsulfinyl)imidazole]", "IC50": "< 10"}
{"smiles": "CCN(CC)c1ccccc1C[S+]([O-])c1nc2c(n1-c1ccccn1)CCC2", "note": "(stereo not drawn) [1,4,5,6-tetrahydro-1-(2-pyridyl)-2-(2-(diethylamino)benzylsulfinyl)cyclopenta(d)imidazole]", "IC50": "~10"}
{"smiles": "CCN(CC)c1ccccc1C[S+]([O-])c1nccn1-c1cc(OC)cc(C)n1", "note": "(stereo not drawn) [1-(4-methoxy-6-methyl-2-pyridyl)-2-(2-(diethylamino)benzylsulfinyl)imidazole]", "IC50": "< 10"}
